We go through one molecule from patent US8242251B2, “Unsymmetrical cyanine dimer compounds and their application” (Life Technologies Corporation, priority 2003, dated 2012).

Each structure is given as a SMILES string. Entries after “also recorded” stand apart in the source; their conditions may differ.

In data set [1] the test system is RNA versus DNA. In words: Screening of fluorescence properties and relative fluorescence enhancement with RNA versus DNA (Table 3). The class given is binding. The following applies: fluorescence enhancement when associated with RNA to that when associated with DNA.
Data set [2] has as its system HeLa human cervical cancer cells. The data set is described as follows: Nucleic acid binding in live eukaryotic cells, HeLa (Example 41). The class given is cell-based. As for the experimental part:
(§1) Bovine pulmonary arterial endothelial (BPEA) cells and HeLa human cervical cancer cells were grown in media for one day after plating on coverslips. Cells were labeled with 1 μM or 10 μM of Compound 21 for HeLa cells, or 10 μM in BPAE cells, in media at 37° C. for 20 minutes, then rinsed twice and mounted in warm medium. Coverslips were examined on a Nikon Eclipse 800 upright fluorescent microscope and imaged with a far red filter set, a Princeton Instruments MicroMax cooled CCD camera, and Universal Imaging MetaMorph imaging software.

Data set [3] has as its system Bovine pulmonary arterial endothelial (BPEA) cells. In words: Nucleic acid binding in live eukaryotic cells, BPAE (Example 41). The class given is cell-based. Particulars: 10 μM. On the procedure:
as §1

For the molecule `C[n+]1c(/C=C2\C=C(N3CCN(C4=C/C(=C\c5oc6ccccc6[n+]5C)c5ccccc5N4c4ccccc4)CC3)N(c3ccccc3)c3ccccc32)oc2ccccc21.[Cl-].[Cl-]` [Compound 20], the “Fluorescence Enhancement Ratio (RNA/DNA)” value in data set [1] was determined as 8.5. Besides, the “selective detection of RNA in live cells” value in data set [2] is “did not demonstrate selective detection of RNA in live cells”. The “labeling pattern in HeLa cells” value in data set [2] (1 μM or 10 μM, far red filter set) is given as “mitochondrial labeling, with stronger punctate spots within the mitochondria, typical of mitochondrial DNA staining; also recorded: very dim nucleolar labeling”. In addition, the “cell permeability in live cells” value in data set [2] (20 minutes 37° C.) was “cell permeable”. Further, in data set [3], the “labeling pattern in BPAE cells” value was “no specific labeling evident, and much higher off-cell background”.
